“And” between values parts separate entries of the source, which are not always exact repeats. Equal entries are not always repeated.
What was measured:
[1] = pKa measurement of the cationic lipid (TNS fluorescence vs pH); assay type: physicochemical; details: probe TNS (fluorescent probe), Table 4; pKa of the cationic lipid of formula (I)
Protocol: Unless indicated otherwise, all pKa's referred to herein were measured at standard temperature and pressure. Also, unless otherwise indicated, all references to pKa are references to pKa measured using the following technique. 2 mM solution of lipid in ethanol was prepared by weighing the lipid and then dissolving it in ethanol. 0.3 mM solution of fluorescent probe TNS in ethanol:methanol 9:1 was prepared by first making 3 mM solution of TNS in methanol and then diluting to 0.3 mM with ethanol. An aqueous buffer containing 200 mM sodium phosphate dibasic and 100 mM citric acid was prepared. […] Using the Hamilton Microlab Star high throughput liquid handler and Hamilton run control software Software, 7.5 uL of probe/lipid mix were added to 242.5 uL of buffer in a 1 mL 96 well plate (model NUNC 260252, […] Nunc International). This was done with all twelve buffers. After mixing in 1 mL 96 well plate, 100 uL of each probe/lipid/buffer mixture was transferred to a 250 uL black with clear bottom 96 well plate (model COSTAR 3904, Corning). The fluorescence measurements are carried out on the SpectraMax M5 spectrophotometer using software SoftMax pro 5.2 and following parameters: After the measurement, the background fluorescence value of an empty well on the 96 well plate was subtracted from each probe/lipid/buffer mixture. The fluorescence intensity values were then normalized to the value at lowest pH. The normalized fluorescence intensity vs. pH chart was then plotted in the Microsoft Excel software. The twelve points were connected with a smooth line. The point on the line at which the normalized fluorescence intensity was equal to 0.5 was found. […] The pKa determined using this method is precise to about 0.1 pKa units.

[2] = Polydispersity index (PDI) of the lipid nanoparticle (dynamic light scattering); assay type: physicochemical; details: Table 4; FVII siRNA LNP; Chol/DSPC/stealth lipid S010, 45/44/9/2
Description: The lipid nanoparticles (LNPs) were formed by mixing equal volumes of lipids dissolved in alcohol with siRNA dissolved in a citrate buffer by an impinging jet process. […] The siRNA to total lipid ratio is approximately 0.05 (wt/wt). Where a LNP formulation contains four lipid components, the molar ratios correspond to the type of lipid as it appears in the first four columns of the table, in the order that they appear. The ratio of the lipids ranges from 20 to 70 mole percent for the cationic lipid with a target of 40-60, the mole percent of helper lipid ranges from 20 to 70 with a target of 30 to 50, the mole percent of neutral lipid ranges from 0-30, the mole percent of PEG lipid has a range from 1 to 6 with a target of 2 to 5. The concentration of siRNA solution ranges from 0.7 to 1.0 mg/mL with a target of 0.8 to 0.9 mg/mL in a sodium citrate: sodium chloride buffer pH 4-6, with a target of 4.5-5.5. The LNPs are formed by mixing equal volumes of lipid solution in ethanol with siRNA dissolved in a citrate buffer by an impinging jet process through a mixing device with ID ranging from 0.25 to 2.0 mm at a flow rate from 10 to 640 mL/min. The mixed LNP solution is held at room temperature for 0-24 hrs prior to a dilution step. […] The final product is sterile filtered and stored at 4° C. Unless indicated otherwise, all PDIs referred to herein are the PDI of the fully formed nanoparticle, as measured by dynamic light scattering on a Malvern Zetasizer. The nanoparticle sample was diluted in phosphate buffered saline (PBS) so that the count rate was approximately 200-400 kcts. The data is presented in Tables 4 and 5 as a weighted average of the intensity measure.

[3] = test system: respiratory syncytial virus F protein; assay: Immunization studies: anti-RSV-F titers after liposome-delivered vA317 self-replicating RNA; assay type: in vivo; details: BALB/c mice, liposomes with 0.1 μg vA317 replicon (naked control 1 μg); for anti-RSV-F titer 2wp1 pool 1 / anti-RSV-F titer 2wp1 pool 2: 2 weeks after first dose; for anti-RSV-F titer 2wp2 pool 1 / anti-RSV-F titer 2wp2 pool 2: 2 weeks after second dose; for anti-RSV-F titer 4wp2 pool 1 / anti-RSV-F titer 4wp2 pool 2: 4 weeks after second dose
Protocol: BALB/c were immunized with liposomes comprising DSPC, cholesterol, and various lipids of the invention (or, for comparison, the cationic lipid 1,2-dilinoleyloxy-N,N-dimethyl-3-aminopropane or ‘DLinDMA’). The liposomes encapsulated 0.1 μg of “vA317” self-replicating RNA replicon which encodes respiratory syncytial virus F protein (see WO2012/031043). […] Doses were given either on days 0 & 21 or days 0 & 42. Immune responses were assessed 2 weeks after each dose (2wp1, 2wp2), and in some cases also at 4 weeks after the second dose (4wp2). Four series of experiments were performed, each with its own naked control.

Question: Which pKa [1] does the source give for `CCCCC/C=C\C/C=C\CCCCCCCC(=O)OCCCOc1cc(CN(C)C)cc(OCCCOC(=O)CC(CCCCCCCC)CCCCCCCC)c1` [Example 97] here?
Answer: 5.82

Question: With `CCCCCCCCOC(=O)CCCCCCCC(=O)OCCCOc1cc(CN(C)C)cc(OCCCOC(=O)CCCCCCCC(=O)OCCCCCCCC)c1` [Example 98] as the molecule, how does the pKa [1] read?
Answer: 5.94

Question: And the PDI [2]?
Answer: 0.096

Question: With `CCCCCCCCCOC(=O)CCCCCCC(=O)OCc1cc(COC(=O)CCCCCCC(=O)OCCCCCCCCC)cc(CN(C)C)c1` [Example 79] as the molecule, how does the pKa [1] read?
Answer: 6.48

Question: With `CCCCC/C=C\C/C=C\CCCCCCCCOC(=O)CCCCOc1cc(CN(C)C)cc(OCCCCC(=O)OCCCCCCCC/C=C\C/C=C\CCCCC)c1` [Example 89] as the molecule, how does the pKa [1] read?
Answer: 6.02

Question: What about the PDI [2] of the same molecule?
Answer: 0.076

Question: With `CCCCCCCC(=O)OCCCCCCCCCCOC(=O)CCC(=O)OCc1cc(COC(=O)CCC(=O)OCCCCCCCCCCOC(=O)CCCCCCC)cc(CN(C)C)c1` [Example 78] as the molecule, how does the pKa [1] read?
Answer: 6.02

Question: What about the PDI [2] of the same molecule?
Answer: 0.043

Question: With `CCCCCCCC(=O)OCCCCCC(=O)OCc1cc(COC(=O)CCCCCOC(=O)CCCCCCC)cc(CN(C)C)c1` [Example 85] as the molecule, how does the pKa [1] read?
Answer: 5.72

Question: For `CCCCC/C=C\C/C=C\CCCCCCCCOc1cc(CCCOC(=O)CCN(C)C)cc(OCCCCCCCC/C=C\C/C=C\CCCCC)c1` [Example 81], which “anti-RSV-F titer 2wp1 pool 1” value ([3]; Course A = days 0 & 21) is on record?
Answer: 1779

Question: And the “anti-RSV-F titer 2wp1 pool 2” value ([3]; Course A = days 0 & 21)?
Answer: 1553

Question: What about the “anti-RSV-F titer 2wp2 pool 1” value ([3]; Course A = days 0 & 21) of the same molecule?
Answer: 24648

Question: What about the “anti-RSV-F titer 2wp2 pool 2” value ([3]; Course A = days 0 & 21) of the same molecule?
Answer: 15304

Question: What about the “anti-RSV-F titer 4wp2 pool 1” value ([3]; Course A = days 0 & 21) of the same molecule?
Answer: 41921

Question: What about the “anti-RSV-F titer 4wp2 pool 2” value ([3]; Course A = days 0 & 21) of the same molecule?
Answer: 34684

Question: For `CCCCC/C=C\C/C=C\CCCCCCCC(=O)OCc1cc(COC(=O)CCCCCCC/C=C\C/C=C\CCCCC)cc(COC(=O)OCCN(C)C)c1` [Example 70], which “anti-RSV-F titer 2wp1 pool 1” value ([3]; Course A = days 0 & 21) is on record?
Answer: 1416

Question: What about the “anti-RSV-F titer 2wp1 pool 2” value ([3]; Course A = days 0 & 21) of the same molecule?
Answer: 3110

Question: And the “anti-RSV-F titer 2wp2 pool 1” value ([3]; Course A = days 0 & 21)?
Answer: 31550

Question: And the “anti-RSV-F titer 2wp2 pool 2” value ([3]; Course A = days 0 & 21)?
Answer: 20124

Question: What about the “anti-RSV-F titer 4wp2 pool 1” value ([3]; Course A = days 0 & 21) of the same molecule?
Answer: 18779

Question: What about the “anti-RSV-F titer 4wp2 pool 2” value ([3]; Course A = days 0 & 21) of the same molecule?
Answer: 18358

Question: Which results are given for `CCCCC/C=C\C/C=C\CCCCCCCCOCC(CN(C)C)OCCCCCCCC/C=C\C/C=C\CCCCC` (stereo not shown) [DLinDMA, 1,2-dilinoleyloxy-N,N-dimethyl-3-aminopropane, reference compound]?
Answer: anti-RSV-F titer 4wp2 pool 1 ([3]; Course A = days 0 & 21): 26504 and 50799; anti-RSV-F titer 4wp2 pool 2 ([3]; Course A = days 0 & 21): 28008 and 35992; anti-RSV-F titer 2wp1 pool 1 ([3]; Course B = days 0 & 42): 13; anti-RSV-F titer 2wp1 pool 2 ([3]; Course B = days 0 & 42): 4; anti-RSV-F titer 2wp2 pool 1 ([3]; Course B = days 0 & 42): 18290; anti-RSV-F titer 2wp2 pool 2 ([3]; Course B = days 0 & 42): 5538; anti-RSV-F titer 4wp2 pool 1 ([3]; Course B = days 0 & 42): 13936; anti-RSV-F titer 4wp2 pool 2 ([3]; Course B = days 0 & 42): 7020

Question: Which pKa [1] does the source give for `CCCCCCCCCCCC(=O)OCCCCCCOc1cc(CN(C)C)cc(OCCCCCCOC(=O)CCCCCCCCCCC)c1` [Example 59] here?
Answer: 6.09

Question: Which results are given for `CCCCC/C=C\C/C=C\CCCCCCCCOc1cc(COC(=O)CCCN(C)C)cc(OCCCCCCCC/C=C\C/C=C\CCCCC)c1` [Example 13]?
Answer: anti-RSV-F titer 2wp1 pool 1 ([3]; Course A = days 0 & 21): 495; anti-RSV-F titer 2wp1 pool 2 ([3]; Course A = days 0 & 21): 620; anti-RSV-F titer 2wp2 pool 1 ([3]; Course A = days 0 & 21): 7157; anti-RSV-F titer 2wp2 pool 2 ([3]; Course A = days 0 & 21): 12316

Question: With `CCCCCCCCCCCCOC(=O)CCCCCOc1cc(CN(C)C)cc(OCCCCCC(=O)OCCCCCCCCCCCC)c1` [Example 90] as the molecule, how does the pKa [1] read?
Answer: 5.81

Question: Which pKa [1] does the source give for `CCCCCCCCC(CCCCCCCC)CC(=O)OCc1cc(COC(=O)CCCCCCCOC(=O)CCCCCCC)cc(CN(C)C)c1` [Example 101] here?
Answer: 6.32

Question: Which pKa [1] does the source give for `CCCCCCCCC(CCCCCCCC)CC(=O)OCCCOc1cc(CN(C)C)cc(OCCCOC(=O)CC(CCCCCCCC)CCCCCCCC)c1` [Example 56] here?
Answer: 5.93

— patent publication US9504747B2, “Lipids and lipid compositions for the delivery of active agents” (Novartis AG, priority 2013, dated 2016)
